Read-outs that look alike come from different tables or passages of the source.
Key:
[1] = system: cough induced by citric acid aerosol in guinea pigs; assay: Guinea pig cough test (citric acid aerosol, Charlier procedure); format: in vivo
Experimental: (§1) The techniques described by Charlier et al. (Arch. Int. Pharmacodyn. 134, 306, 1961) and by Stefko et al. (J. Pharm. Exp. Therap., 108, 217, 1953), adapted with minor modifications, are used to investigate the antitussive properties of the compounds of the invention. Codeine phosphate is used as positive reference compound.
According to the Charlier procedure guinea pigs are exposed to a citric acid aerosol (7.5%) and cough is recorded 60 minutes after the antitussive treatment by i.p. route. Male animals of 300-400 g pigs are placed in perspex box (20×30×30 cm) connected to an aerosol compressor; the animals are subjected to a citric acid saturated atmosphere, 60 minutes after the i.p. injection of a compound of the invention (0.1 and 0.3M solutions; 1 ml/kg).
The total number of cough strokes and the delay of the first cough are recorded during the first five minutes.
Five guinea pigs are used for each dose level and the results are compared with controls (vehicle treatment) and codeine phosphate 0.07M solution (standard treatment).
ED50 and the corresponding delay of first cough stroke are calculated.
The data obtained by i.p. administration are confirmed by oral administration.

[2] = system: pathological sputum of bronchitic rabbits; assay: Mucus regulating properties in bronchitic rabbits (sputum AUC as % compared to bronchitic controls); format: in vivo, male New Zealand white rabbits; details: for mucus regulating activity (in words): rabbit, in vivo; for mucus regulating effectiveness compared with carboxymethylcysteine: dosage level 0.01-0.08M vs 0.153M carboxymethylcysteine; for Fucose (mg/ml), AUC as a 100% compared to bronchitic controls / Galactose (mg/ml), AUC as a 100% compared to bronchitic controls / Mucus production (ml/kg), AUC as a 100% compared to bronchitic controls / Phospholipids (mg/ml), AUC as a 100% compared to bronchitic controls / Protein (mg/ml), AUC as a 100% compared to bronchitic controls / Sialic acid (mg/ml), AUC as a 100% compared to bronchitic controls / Viscosity (cps), AUC as a 100% compared to bronchitic controls: Table 2, equimolecular amounts to S-carboxymethyl cysteine
Experimental: The animals are submitted to inhalation of a 5% H2 SO3 aqueous solution by aerosol (exposition of 3 hours a day for 3 alternate days), to induce a chronic bronchial inflammatory disease which causes a production of pathological sputum in the bronchial tree.
Aim of the experiments is to evaluate modifications of selective parameters such as dry weight of the sputum, viscosity, content in proteins, phospholipids, galactose, sialic acid and fucose, induced in this pathological sputum by pharmacological treatment with the compounds of the invention.
To this purpose, the sputum produced in the bronchial tree is collected daily, through a "T" shaped glass cannula, inserted in the trachea, before and after oral twice a day (9.00 a.m. and 4.00 p.m.) treatment with one of the compounds of the invention.
The schedule treatment procedure is shown in the following Scheme 1: [drawing 21] where 0 indicates the day of implantation of the tracheal cannula; -7-5-3 indicate the days of H2 SO3 treatment (H); 1, 2, 3, 4 indicate the days of oral administration of the compounds of the invention (T) and the time of mucus collection (M).
The mucus collected in day 1 in the morning is considered as a blank; 7 indicates the day of the animal sacrifice after the mucous collection.
The sputum samples are stored in the freezer (-20° C.) until the investigation of biological and rheological parameters is carried out.
The samples are investigated for relative viscosity, measured at 37° C. with a Brookfield viscometer (model LT VD) equipped with a 1,565° cone-plate, and aliquoted for biochemical analysis of protein, phospholipids, galactose, sialic acid and fucose contents. Dry weight of the mucus is also determined. For each parameter, cumulative data are referred to a seven days period after the beginning of the treatment and they are extrapolated using the AUC method (area under curve) calculated by the trapazoidal rule. Finally the data are compared with data obtained from controls (vehicle treatment), non bronchitic rabbits (vehicle treatment) and positive controls bronchitic rabbits treated with 0.153M […].

[3] = system: cough induced by electric stimulation in dogs; assay: Dog cough test (cough induced by electric stimulation, Stefko procedure); format: in vivo, conscious mongrel dogs; details: for duration of action: dog cough test, in words; for % inhibition of cough stimulus: oral, dose not given
Experimental: as §1
In the Stefko procedure, conscious mongrel dogs (15±3 kg body weight) are used; the compounds of the invention are tested for their ability to inhibit cough induced by electric stimulation.
Under general anesthesia, two insulated nichrome wires (0.4 mm diameter) are surgically implanted into the submucosa of the trachea.
About two days later, the dogs are placed in a sling and the exteriorized electrodes are connected to an electric stimulating device (such as Grass S 48 Mod.).
The stimulation parameters such as: delay 0.01 msec, duration 1 msec, frequency 30 Hz, are used.
An electrical stimulus of 1 sec is applied 10 times at 5 sec intervals in order to determine the minimum voltage necessary for eliciting reproducible cough responses. Then, tussive responses to the electrical stimuli are registered at 15, 30, 60, 90, 120, 150, 180, 240, 300 and 360 minutes after oral administration of the compounds of the invention.
The tussive responses are scored as follows: 1: no response; 2: sigh or exaggerated expiration; 3: marked cough; 4: one marked cough and one exaggerated expiration: 5: two marked coughs.
Six dogs are employed for each determination and the mean activity is calculated.
The inhibition percent of the cough response and the duration of activity are compared with codeine.

[4] = Cavia porcellus, ip, 1 h, guinea pig cough test, i.p., 60 minutes after treatment, read-out: ED50
[5] = guinea pig cough test, i.p., 60 minutes after treatment
[6] = Table 1, 0.153 M, oral, AUC over seven days

COc1ccccc1OCC1SCCN1C(=O)CSC(=O)CCC1CCCCC1 (stereo not drawn) [3-(3'-cyclohexyl)propionylthioacetyl-2-(o-methoxyphenoxy)methyl-thiazolidine]
ED50 [1, 4]: 0.5 to 4 mg/kg

O=C(O)C1CSC(COc2ccccc2O)N1 (stereo not drawn) [4-carboxy-2-[(o-hydroxyphenoxy)methyl]-thiazolidine]
mucus regulating activity (in words) [2]: high mucus regulating activity | antitussive properties (in words) [1]: reduced antitussive potency

CCOCCOCC(=O)N1CCSC1COc1ccccc1OC (stereo not drawn) [3-(3,6-dioxa-capriloyl)-2-(O-methoxyphenoxy)methyl-thiazolidine]
mucus regulating effectiveness compared with carboxymethylcysteine [2]: at least as effective as 0.153M of 5-carboxymethylcysteine

C#CCOc1ccccc1OCC1SCCN1C(=O)CCn1ccnc1 (stereo not drawn) [3-(3-imidazol-1-yl)-propionyl-2-(O-propargyloxyphenoxy)methyl-thiazolidine]
mucus regulating effectiveness compared with carboxymethylcysteine [2]: at least as effective as 0.153M of 5-carboxymethylcysteine

CC(=O)SCC(=O)N1CCSC1COc1ccccc1C (stereo not drawn) [3-acetylthioacetyl-2-(o-tolyloxymethyl)thiazolidine]
fucose content in the mucus (in words) ([2]; tested as mucus regulator): increases | galactose content in the mucus (in words) ([2]; tested as mucus regulator): poorly affecting | protein content in the mucus (in words) ([2]; tested as mucus regulator): increases | sialic content in the mucus (in words) ([2]; tested as mucus regulator): poorly affecting | viscosity of the mucus (in words) ([2]; tested as mucus regulator): increases | antitussive properties (in words) [1]: devoid of any antitussive properties

COc1ccccc1OCC1N[C@H](C(=O)O)CS1 (stereo partly drawn) [4-carboxy-2-(o-methoxyphenoxymethyl)thiazolidine]
Fucose (mg/ml), AUC as a 100% compared to bronchitic controls ([2]; oral): 55% | Galactose (mg/ml), AUC as a 100% compared to bronchitic controls ([2]; oral): 29% | Mucus production (ml/kg), AUC as a 100% compared to bronchitic controls ([2]; oral): 95% | Phospholipids (mg/ml), AUC as a 100% compared to bronchitic controls ([2]; oral): 49% | Protein (mg/ml), AUC as a 100% compared to bronchitic controls ([2]; oral): 48% | Sialic acid (mg/ml), AUC as a 100% compared to bronchitic controls ([2]; oral): 52% | Viscosity (cps), AUC as a 100% compared to bronchitic controls ([2]; oral): 40% | duration of action [3]: middle | % inhibition of cough stimulus ([3]; dog): 43.8% | ED50 [1, 5]: inactive

CC(=O)SCC(=O)N1CCSC1COc1ccccc1O (stereo not drawn) [3-acetylthio-acetyl-2-[(o-hydroxyphenoxy)methyl]thiazolidine]
Fucose (mg/ml), AUC as a 100% compared to bronchitic controls ([2]; oral): 90.8% | Galactose (mg/ml), AUC as a 100% compared to bronchitic controls ([2]; oral): 38.2% | Mucus production (ml/kg), AUC as a 100% compared to bronchitic controls ([2]; oral): 99.2% | Phospholipids (mg/ml), AUC as a 100% compared to bronchitic controls ([2]; oral): 47% | Protein (mg/ml), AUC as a 100% compared to bronchitic controls ([2]; oral): 62.0% | Sialic acid (mg/ml), AUC as a 100% compared to bronchitic controls ([2]; oral): 49.5% | Viscosity (cps), AUC as a 100% compared to bronchitic controls ([2]; oral): 31.9% | mucus regulating activity (in words) [2]: particularly favourable increase of their mucus regulating activity | ED50 [1, 4]: 60 mg/kg | decrease of the antitussive potency in comparison with the reference compound 3 ([1]; guinea pig cough test): ~10 times

CCOC(=O)[C@@H]1CSC(COc2ccccc2OC)N1 (stereo partly drawn) [4-carbethoxy-2-(o-methoxyphenoxy)methyl-thiazolidine]
duration of action [3]: short | % inhibition of cough stimulus ([3]; dog): 26.7% | ED50 [1, 5]: inactive

COc1ccccc1SCC1SCCN1C(=O)CSC(C)=O (stereo not drawn) [3α-acetylthioacetyl-2-(o-methoxyphenylthio)methyl-thiazolidine]
ED50 [1, 4]: 0.5 to 4 mg/kg

COc1ccc2c3c1O[C@H]1[C@@H](O)C=C[C@H]4[C@@H](C2)N(C)CC[C@@]341 [codeine phosphate, reference compound]
duration of inhibition of the cough stimulus ([3]; dog, 8 mg/kg): 2 to 4 h | inhibition of the cough stimulus ([3]; dog, 8 mg/kg): 52% | ED50 ([1]; Cavia porcellus, ip, 1 h): ~23 mg/kg | % delay of the first cough ([1]; guinea pig cough test, control 100): 170%

CC(=O)SCC(=O)Oc1ccccc1OCC1SCCN1C(=O)CSC(C)=O (stereo not drawn) [3-α-acetylthioacetyl-2-[(o-α-acetylthioacetoxyphenoxy)methyl]thiazolidine]
Fucose (mg/ml), AUC as a 100% compared to bronchitic controls ([2]; oral): 147.9% | Galactose (mg/ml), AUC as a 100% compared to bronchitic controls ([2]; oral): 72.9% | Mucus production (ml/kg), AUC as a 100% compared to bronchitic controls ([2]; oral): 74.0% | Phospholipids (mg/ml), AUC as a 100% compared to bronchitic controls ([2]; oral): 49.8% | Protein (mg/ml), AUC as a 100% compared to bronchitic controls ([2]; oral): 46.9% | Sialic acid (mg/ml), AUC as a 100% compared to bronchitic controls ([2]; oral): 31.3% | Viscosity (cps), AUC as a 100% compared to bronchitic controls ([2]; oral): 71.9% | mucus regulating activity (in words) [2]: particularly favourable increase of their mucus regulating activity | ED50 [1, 4]: 162 mg/kg | decrease of the antitussive potency in comparison with the reference compound 3 ([1]; guinea pig cough test): ~10 times

COc1ccccc1OCC1SCCN1C(=O)CSC(=O)c1ccccc1 (stereo not drawn) [3-benzoylthioacetyl-2-(o-methoxyphenoxy)methyl-thiazolidine]
ED50 [1, 4]: 0.5 to 4 mg/kg

N[C@@H](CSCC(=O)O)C(=O)O [S--carboxymethyl cysteine, S-carboxymethyl cysteine, reference compound]
Fucose mg/ml, AUC as a % compared to bronchitic controls [2, 6]: 56% | Galactose mg/ml, AUC as a % compared to bronchitic controls [2, 6]: 64% | Mucus production ml/kg, AUC as a % compared to bronchitic controls [2, 6]: 97% | Phospholipids mg/ml, AUC as a % compared to bronchitic controls [2, 6]: 108% | Protein mg/ml, AUC as a % compared to bronchitic controls [2, 6]: 105% | Sialic acid mg/ml, AUC as a % compared to bronchitic controls [2, 6]: 60% | Viscosity (cps), AUC as a % compared to bronchitic controls [2, 6]: 52%

COc1ccccc1OCC1SCCN1C(=O)CN1CCN(C)CC1 (stereo not drawn) [3-(4'-methyl-piperazin-1'-yl)acetyl-2-(o-methoxyphenoxy)methyl-thiazolidine]
ED50 [1, 4]: 0.5 to 4 mg/kg

COc1ccccc1OCC1SCCN1C(=O)CCn1ccnc1 (stereo not drawn) [3-(3-imidazol-1-yl)-propionyl-2-(O-methoxyphenoxy)methylthiazolidine]
mucus regulating effectiveness compared with carboxymethylcysteine [2]: at least as effective as 0.153M of 5-carboxymethylcysteine

COc1ccccc1OCC1SCCN1C(=O)CSC(=O)CN1CCN(C)CC1 (stereo not drawn) [3-(4'-methylpiperazine-1-yl)acetylthioacetyl-2-(o-methoxyphenoxy)methylthiazolidine]
ED50 [1, 4]: 0.5 to 4 mg/kg

3-acetylthioacetyl-2-[2'-(o-acetylthioacetoxyphenyl)ethyl]thiazolidine
Fucose (mg/ml), AUC as a 100% compared to bronchitic controls ([2]; oral): 128% | Galactose (mg/ml), AUC as a 100% compared to bronchitic controls ([2]; oral): 67% | Mucus production (ml/kg), AUC as a 100% compared to bronchitic controls ([2]; oral): 76.1% | Phospholipids (mg/ml), AUC as a 100% compared to bronchitic controls ([2]; oral): 47.2% | Protein (mg/ml), AUC as a 100% compared to bronchitic controls ([2]; oral): 48% | Sialic acid (mg/ml), AUC as a 100% compared to bronchitic controls ([2]; oral): 36.2% | Viscosity (cps), AUC as a 100% compared to bronchitic controls ([2]; oral): 70% | mucus regulating activity (in words) [2]: particularly favourable increase of their mucus regulating activity | decrease of the antitussive potency in comparison with the reference compound 3 ([1]; guinea pig cough test): ~10 times | ED50 [1, 5]: 61 mg/kg

CCOCCSCC(=O)N1CCSC1COc1ccccc1OC (stereo not drawn) [3-(3-thia-6-oxa-capriloyl)-2-(O-methoxyphenoxy)methylthiazolidine]
mucus regulating effectiveness compared with carboxymethylcysteine [2]: at least as effective as 0.153M of 5-carboxymethylcysteine

COc1ccccc1OCC1NCCS1 (stereo not drawn) [2-(o-methoxyphenoxy)-methyl-thiazolidine, 2-(o-methoxyphenoxymethyl)thiazolidine]
Fucose (mg/ml), AUC as a 100% compared to bronchitic controls ([2]; oral): 76% | Galactose (mg/ml), AUC as a 100% compared to bronchitic controls ([2]; oral): 59% | Mucus production (ml/kg), AUC as a 100% compared to bronchitic controls ([2]; oral): 124% | Phospholipids (mg/ml), AUC as a 100% compared to bronchitic controls ([2]; oral): 106% | Protein (mg/ml), AUC as a 100% compared to bronchitic controls ([2]; oral): 92% | Sialic acid (mg/ml), AUC as a 100% compared to bronchitic controls ([2]; oral): 85% | Viscosity (cps), AUC as a 100% compared to bronchitic controls ([2]; oral): 116%
